Experimental data as given in patent publication US12240854B2, “TRAF 6 inhibitors” (Helmholtz Zentrum München - Deutsches Forschungszentrum für …, priority 2018, dated 2025).
Entries after “also recorded” stand apart in the source; their conditions may differ.

Columns and labels:
[1] = target: T1, Interaction of Ubc13 with Uev1a (Homo sapiens, UniProt P61088+Q13404); assay: Ubc13-Uev1a interaction (FIG. 2E); type: binding
T1 construct: GST (N); His; made in house

[2] = test system: U2932 (ABC DLBCL-MYD88 wt); assay: Cell viability in DLBCL, U2932; type: cell-based; conditions: U2932, 30 μM, 9 days
Description: To determine the effects of C25-140 on MYD88-dependent ABC-DLBCL, we chose the HBL1 (ABC-DLBCL-MYD88 L265P), U2932 (ABC DLBCL-MYD88 wt) and BJAB (GCB DLBCL) cell lines. 1×10^6 cells of each cell line was seeded in 5 ml and treated with 30 μM compound C25-140 (compound 3) or DMSO. The entire experiment was carried out for 9 days. Every day 500 μl were taken and viable cell number was acquired using the ViCEII cell counter (Beckmann Coulter). At days 4 and 8 of the experiment the volume was again adjusted to 5 ml and samples were supplemented with 30 μM compound C25-140 or DMSO. This process was necessary to ensure linear proliferation of DMSO treated cells. All curves of C25-140 treated samples were referred to the corresponding DMSO treated controls.

U2OS cells = assay: Cell cycle assessment (propidium iodide), U2OS cells; type: cell-based; conditions: 24 hours and 72 hours
Description: For cell cycle staining, cells were seeded at 2×10^5 cells per sample and treated with compound or DMSO. After the indicated incubation time (24 or 72 hours), cells were fixed in 100% Ethanol and subsequently stained with the Propidium Iodide staining solution (0.1% Triton X-100; 20 μg/ml Propidium Iodide; 200 μg/ml RNAse A in PBS) for 40 min in the dark. The Propidium Iodide fluorescence was collected using the Attune Flow Cytometer (Thermo Fisher Scientific). Analysis was performed using the Single Cell analysis software FlowJo.

80 cancer cell lines = assay: Omniscreen cancer cell line panel, CellTiter-Glo; type: cell-based; conditions: 9 dose levels from 80 μM, 72 hours
Description: The effect of C25-140 on cell viability of 80 cancer cell lines using the CellTiter-Glo luminescent cell viability assay was conducted at CrownBioscience Inc. at the testing facility in Beijing. Here, 80 selected cell lines were cultured in media supplemented with 10-15% FBS, in the temperature of 37° C., 5% CO2 and 95% humidity. Culture medium was purchased from GIBCO or Sigma, USA. The cells were treated with C25-140 in 9 dose levels starting at 80 μM with 3.16-fold serial dilutions. Cisplatin served as a reference control and started with a top working concentration of 100 μM. Test samples were incubated for 72 hours and cell viability was measured by the CellTiter-Glo assay.

MURF/TRIM63 = target: T2, MURF/TRIM63 (Homo sapiens, UniProt Q969Q1); assay: In vitro ubiquitination assay, TRIM63 ubiquitin ligase kit; type: biochemical; conditions: K48 chain formation
T2 construct: purchased Boston Biochem
T2 sequence (Q969Q1 whole entry): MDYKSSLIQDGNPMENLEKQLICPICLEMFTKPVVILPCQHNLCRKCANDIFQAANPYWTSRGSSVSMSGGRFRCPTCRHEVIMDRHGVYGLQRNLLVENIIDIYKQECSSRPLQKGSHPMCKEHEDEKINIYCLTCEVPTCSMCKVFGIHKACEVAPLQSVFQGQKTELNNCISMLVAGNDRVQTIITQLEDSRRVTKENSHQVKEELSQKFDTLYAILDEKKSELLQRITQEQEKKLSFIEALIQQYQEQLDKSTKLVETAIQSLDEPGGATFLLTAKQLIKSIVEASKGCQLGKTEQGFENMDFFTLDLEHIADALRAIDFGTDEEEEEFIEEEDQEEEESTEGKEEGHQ
Description: (§1) For analysis of cIAP1, MDM2, TRIM63, RNF4, ITCH and E6AP mediated poly-ubiquitination, the respective ubiquitin ligase kit from Boston Biochem (K-102, K-260, K-200B, K-220, K-240 and K-270) was used. Here, reaction buffer, E1, E2 and E3 enzyme (and p53 substrate in case of MDM2) were mixed and pre-incubated with compound or DMSO for 5 minutes at room temperature before adding Mg^2+-ATP and mono-ubiquitin for reaction start. Ubiquitination was visualized by Western Blot analyses.

ITCH = target: T3, ITCH (Homo sapiens, UniProt Q96J02); assay: In vitro ubiquitination assay, ITCH ubiquitin ligase kit; type: biochemical
T3 construct: purchased Boston Biochem
T3 sequence (Q96J02 whole entry): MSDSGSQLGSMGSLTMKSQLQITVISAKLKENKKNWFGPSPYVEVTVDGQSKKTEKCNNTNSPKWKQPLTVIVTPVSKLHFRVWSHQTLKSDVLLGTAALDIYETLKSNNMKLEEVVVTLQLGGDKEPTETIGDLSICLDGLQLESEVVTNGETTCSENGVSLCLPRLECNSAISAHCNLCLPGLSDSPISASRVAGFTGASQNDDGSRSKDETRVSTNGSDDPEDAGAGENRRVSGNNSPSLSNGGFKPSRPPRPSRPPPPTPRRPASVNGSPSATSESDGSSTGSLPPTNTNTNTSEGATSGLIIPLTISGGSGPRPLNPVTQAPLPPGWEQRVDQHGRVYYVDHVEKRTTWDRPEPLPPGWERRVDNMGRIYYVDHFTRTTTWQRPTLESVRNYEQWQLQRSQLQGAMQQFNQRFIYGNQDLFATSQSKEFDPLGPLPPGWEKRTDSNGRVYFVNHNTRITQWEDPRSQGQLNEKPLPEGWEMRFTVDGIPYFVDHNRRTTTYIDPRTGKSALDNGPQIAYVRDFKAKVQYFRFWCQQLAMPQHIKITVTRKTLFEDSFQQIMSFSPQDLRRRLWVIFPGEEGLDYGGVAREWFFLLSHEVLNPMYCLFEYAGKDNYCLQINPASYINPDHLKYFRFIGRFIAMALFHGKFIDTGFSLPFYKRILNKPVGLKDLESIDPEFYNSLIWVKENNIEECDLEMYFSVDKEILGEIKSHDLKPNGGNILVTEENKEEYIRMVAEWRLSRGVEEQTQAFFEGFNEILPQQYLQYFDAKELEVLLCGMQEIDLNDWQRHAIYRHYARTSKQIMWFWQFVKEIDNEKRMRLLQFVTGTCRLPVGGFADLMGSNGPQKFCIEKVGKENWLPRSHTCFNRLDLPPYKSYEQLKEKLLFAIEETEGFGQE
Description: as §1

TRAF6 RZ1 protein = target: T4, TRAF6 RZ1 protein (Homo sapiens, UniProt Q9Y4K3); assay: Two-dimensional NMR (SOFAST-HMQC) binding experiment; conditions: protein:compound 1:5
T4 construct: GST (N, cleaved yes); made in house; host or cells: E. coli BL21 codon plus RIPL, M9 medium with 15NH4
T4 sequence (Q9Y4K3 with tags, fused parts or gaps): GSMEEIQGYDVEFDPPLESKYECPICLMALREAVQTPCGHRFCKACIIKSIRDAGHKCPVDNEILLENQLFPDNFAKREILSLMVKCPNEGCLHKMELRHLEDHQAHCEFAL
Description: To determine whether the inhibitory compounds directly bind to TRAF6 rather than to Ubc13, 2D-NMR experiments were conducted. Untagged ^15N-labeled TRAF6 RZ1 protein (c=120 μM) and compound (c=20 mM) were incubated at a ratio of 1:5 in a 3 mm NMR tube for 10 minutes before spectra acquisition. To observe chemical shift perturbations upon compound addition, two-dimensional SOFAST-HMQC spectra were acquired. All measurements were performed using the Bruker Avance 600 MHz spectrometer.

[3] = test system: primary murine CD4+ T-cells; assay: Primary mouse CD4+ T-cells, CD3/CD28 stimulation (qRT-PCR, ELISA); type: cell-based; conditions: primary naive CD4+ T-cells
Description: For MEF cells, 1.2×10^5 cells per sample were seeded, treated with compound for 6 hours and stimulated with either IL-1β or TNFα for 60 minutes. […] RNA was isolated according to the manufacturer's protocol of the Qiagen RNeasy Kit (MEF cells) or the STRATEC INVITRAP® SPIN UNIVERSAL RNA MINI KIT (Jurkat T-cells). The isolation of mRNA from […] white adipose tissue from DIO mice was performed using TRIzol® Reagent according to manufacturer's instruction. To clear the isolated RNA from genomic DNA, samples (up to 5 μg RNA) were treated with RQ1 RNase-Free DNaseI (Promega) as described in the technical manual. […] For quantification of cDNA in the samples, the LightCylcer480 (Roche) and the KAPA SYBR FAST qPCR Kit were used. For relative quantification, the ΔΔCp method first described by Pfaffl (Pfaffl, M. W., A new mathematical model for relative quantification in real-time RT-PCR. Nucleic Acids Res, 2001. 29(9): p. e45) was applied. […]
For measurement of cytokine secretion, 2×10^5 Jurkat T-cells or primary CD4^+ T-cells or human PBMCs per sample were seeded, treated with compound for 6 hours and stimulated as indicated. 20 hours after stimulation, supernatants were harvested and analyzed with the IL-2, IL-1β and TNFα Ready-Set-Go! […]

T1 sequence (P61088 with tags, fused parts or gaps): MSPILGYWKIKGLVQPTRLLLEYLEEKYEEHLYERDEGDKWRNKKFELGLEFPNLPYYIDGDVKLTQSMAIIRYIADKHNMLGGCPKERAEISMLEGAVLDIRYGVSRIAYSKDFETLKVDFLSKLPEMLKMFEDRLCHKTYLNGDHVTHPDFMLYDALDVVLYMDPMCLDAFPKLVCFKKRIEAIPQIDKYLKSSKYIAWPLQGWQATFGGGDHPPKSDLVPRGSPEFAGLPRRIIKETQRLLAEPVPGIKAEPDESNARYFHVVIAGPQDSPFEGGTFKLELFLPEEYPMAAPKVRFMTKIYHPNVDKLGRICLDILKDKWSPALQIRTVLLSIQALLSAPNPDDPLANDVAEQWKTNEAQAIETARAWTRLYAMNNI
T1 sequence (Q13404 with tags, fused parts or gaps isoform Q13404-7): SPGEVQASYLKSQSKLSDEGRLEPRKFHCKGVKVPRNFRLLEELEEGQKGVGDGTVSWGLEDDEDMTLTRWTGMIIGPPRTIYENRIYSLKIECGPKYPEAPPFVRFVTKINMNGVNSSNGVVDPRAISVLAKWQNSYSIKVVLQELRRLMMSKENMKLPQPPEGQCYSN

Cc1nn(-c2ccc3nnc(C)n3n2)c(C)c1CCC(=O)N1CCC(Cc2ccccc2)CC1 [Example C25-140, 1-(4-Benzylpiperidin-1-yl)-3-(3,5-dimethyl-1-(3-methyl-[1,2,4]-triazolo-[4,3-b]-pyridazin-6-yl)-1H-pyrazol-4-yl)-propan-1-one]
interaction of Ubc13 with Uev1a [1]: did not affect binding; also recorded: not affected
viability of MYD88 wildtype ABC DLBCL [2]: only slightly affected; also recorded: not affected
cell cycle progression (U2OS cells): no effects on cell cycle phases; also recorded: not impaired
viability of control cell lines HS-5 and MCF 10A (80 cancer cell lines): not affected at all
viability of cancer cell lines (80 cancer cell lines; 78 cancer cell lines): major effect is on cancer cells of blood origin; also recorded: Various cancer cell lines died; also recorded: Major effects were visible in cancer cells of blood origin
S5A ubiquitination by MURF/TRIM63 (MURF/TRIM63): not influenced; also recorded: not affected
ITCH auto-ubiquitination (ITCH): not influenced; also recorded: not affected
direct binding to TRAF6 RZ1 protein (shifting or disappearing of NMR peaks) (TRAF6 RZ1 protein): directly binds to the TRAF6 protein
IL-2 mRNA expression [3]: impaired
IL-2 protein secretion [3]: counteracted; also recorded: impaired
